In US20180094019A1, “CRYSTALLINE FORMS OF MODIFIED TRITERPENOID HYDROCHLORIDE SALTS WITH HIV MATURATION INHIBITOR ACTIVITY” (VIIV HEALTHCARE UK (NO.4) LIMITED, priority 2015, published 2018):

Assays:
[1] = Dehydration of form H-4 to anhydrous form P44 on drying / sensitivity to relative humidity; assay type: physicochemical
Protocol: Additionally, the ternary solvent mixture THF/water/MeCN can be used. If the resultant H-4 form is dried at a temperature greater than 60° C., then it converts to an anhydrous form of H-4, designated as P44. […] In practice, to minimize conversion to the P44 form, the drying can be conducted under a stream of humidified nitrogen gas.

[2] = Relationship of the crystalline forms: relative thermodynamic stability and critical water activity; assay type: physicochemical; conditions: ambient conditions; T1F-2 compared with T1F-1
Source text: Herein we describe three crystalline forms of the monohydrochloride salt, Compound I, that have been prepared and identified: the monohydrochloride monohydrate H-4 form and two monohydrochloride forms designated as […]-1 and […]-2. […] The critical water activity between the […]-2 and H-4 forms is in the range 0.05-0.24.

Row | sensitivity to relative humidity [1] | drying temperature at which H-4 converts to anhydrous form P44 ([1]; drying of the resultant H-4 form) | temperature of dehydration to the P44 form ([1]; under a stream of dry nitrogen gas) [°C] | Compound | relative thermodynamic stability of the crystalline forms [2]
1 | sensitive to relative humidity | greater than 60 °C | ≥ 30 | C=C(C)[C@@H]1CC[C@]2(NCCN3CCS(=O)(=O)CC3)CC[C@]3(C)[C@H](CC[C@@H]4[C@@]5(C)CC=C(c6ccc(C(=O)O)cc6)C(C)(C)[C@@H]5CC[C@]43C)[C@@H]12.Cl [Form H-4, 4-((1R,3aS,5aR,5bR, 7aR, 11aS,11bR,13aR,13bR)-3a-((2-(1,1-dioxidothiomorpholino)ethyl)amino)-5a,5b,8,8,11a-pentamethyl-1-(prop-1-en-2-yl)-2,3,3a,4,5,5a,5b,6,7,7a,8, 11,11a,11b, 12,13,13a,13b-octadecahydro-1H-cyclopenta[a]chrysen-9-yl)benzoic acid hydrochloride hydrate] | –
2 | – | – | – | C=C(C)[C@@H]1CC[C@]2(NCCN3CCS(=O)(=O)CC3)CC[C@]3(C)[C@H](CC[C@@H]4[C@@]5(C)CC=C(c6ccc(C(=O)O)cc6)C(C)(C)[C@@H]5CC[C@]43C)[C@@H]12.Cl [Form T1F-2, 4-((1R,3aS,5aR,5bR, 7aR, 11aS,11bR,13aR,13bR)-3a-((2-(1,1-dioxidothiomorpholino)ethyl)amino)-5a,5b,8,8,11a-pentamethyl-1-(prop-1-en-2-yl)-2,3,3a,4,5,5a,5b,6,7,7a,8, 11,11a,11b, 12,13,13a,13b-octadecahydro-1H-cyclopenta[a]chrysen-9-yl)benzoic acid hydrochloride] | thermodynamically more stable than T1F-1 form
